Drawing on ChEMBL document CHEMBL3991601, “The target landscape of clinical kinase drugs” (Science, 2017), this text covers Kd for eleven compounds.

Active and inactive are the calls of the source.

Some targets named below: Ephrin type-A receptor 2 (Homo sapiens, UniProt P29317); Obg-like ATPase 1 (Homo sapiens, UniProt Q9NTK5); Actin-related protein 2 (Homo sapiens, UniProt P61160); Activated CDC42 kinase 1 (Homo sapiens, UniProt Q07912).
Assay [1] deals with Casein kinase I isoform epsilon (Homo sapiens, UniProt P49674).
Assay [2] addresses T1, Signal recognition particle receptor subunit alpha (Homo sapiens, UniProt P08240).
T1 sequence (P08240 whole entry): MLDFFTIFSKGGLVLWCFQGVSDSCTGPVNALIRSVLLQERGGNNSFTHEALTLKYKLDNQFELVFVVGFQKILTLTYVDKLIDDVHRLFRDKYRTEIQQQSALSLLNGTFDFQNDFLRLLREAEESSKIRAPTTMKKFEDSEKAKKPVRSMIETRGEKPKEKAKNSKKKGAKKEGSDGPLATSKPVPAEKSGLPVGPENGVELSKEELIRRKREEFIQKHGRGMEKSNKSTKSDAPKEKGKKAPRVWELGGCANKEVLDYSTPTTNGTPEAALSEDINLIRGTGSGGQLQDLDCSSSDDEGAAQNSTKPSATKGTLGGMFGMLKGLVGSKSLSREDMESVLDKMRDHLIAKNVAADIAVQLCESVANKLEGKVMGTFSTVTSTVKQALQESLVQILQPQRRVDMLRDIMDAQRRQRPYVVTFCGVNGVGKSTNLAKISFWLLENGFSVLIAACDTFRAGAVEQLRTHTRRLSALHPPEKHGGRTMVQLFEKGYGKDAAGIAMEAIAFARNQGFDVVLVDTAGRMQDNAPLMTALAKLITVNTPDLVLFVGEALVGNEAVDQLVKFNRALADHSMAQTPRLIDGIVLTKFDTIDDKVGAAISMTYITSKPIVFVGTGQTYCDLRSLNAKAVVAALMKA

Assay [3] has as its target T2, Phosphatidylinositol 5-phosphate 4-kinase type-2 alpha (Homo sapiens, UniProt P48426).
T2 sequence (P48426 whole entry): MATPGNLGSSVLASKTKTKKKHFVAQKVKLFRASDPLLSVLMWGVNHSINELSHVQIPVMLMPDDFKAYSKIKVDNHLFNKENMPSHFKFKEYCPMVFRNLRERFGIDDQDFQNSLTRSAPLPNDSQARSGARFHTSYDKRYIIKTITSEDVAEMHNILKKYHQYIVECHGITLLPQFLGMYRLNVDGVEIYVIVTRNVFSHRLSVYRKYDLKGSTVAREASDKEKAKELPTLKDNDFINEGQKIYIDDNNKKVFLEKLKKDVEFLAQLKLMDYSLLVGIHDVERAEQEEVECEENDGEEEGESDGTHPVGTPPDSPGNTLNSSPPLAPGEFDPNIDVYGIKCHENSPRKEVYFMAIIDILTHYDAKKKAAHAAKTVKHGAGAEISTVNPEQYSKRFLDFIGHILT

Assay [4] concerns the target Proto-oncogene tyrosine-protein kinase Src (Homo sapiens, UniProt P12931).
The target in assay [5] is T3, Interleukin-1 receptor-associated kinase 3 (Homo sapiens, UniProt Q9Y616).
T3 sequence (Q9Y616 whole entry): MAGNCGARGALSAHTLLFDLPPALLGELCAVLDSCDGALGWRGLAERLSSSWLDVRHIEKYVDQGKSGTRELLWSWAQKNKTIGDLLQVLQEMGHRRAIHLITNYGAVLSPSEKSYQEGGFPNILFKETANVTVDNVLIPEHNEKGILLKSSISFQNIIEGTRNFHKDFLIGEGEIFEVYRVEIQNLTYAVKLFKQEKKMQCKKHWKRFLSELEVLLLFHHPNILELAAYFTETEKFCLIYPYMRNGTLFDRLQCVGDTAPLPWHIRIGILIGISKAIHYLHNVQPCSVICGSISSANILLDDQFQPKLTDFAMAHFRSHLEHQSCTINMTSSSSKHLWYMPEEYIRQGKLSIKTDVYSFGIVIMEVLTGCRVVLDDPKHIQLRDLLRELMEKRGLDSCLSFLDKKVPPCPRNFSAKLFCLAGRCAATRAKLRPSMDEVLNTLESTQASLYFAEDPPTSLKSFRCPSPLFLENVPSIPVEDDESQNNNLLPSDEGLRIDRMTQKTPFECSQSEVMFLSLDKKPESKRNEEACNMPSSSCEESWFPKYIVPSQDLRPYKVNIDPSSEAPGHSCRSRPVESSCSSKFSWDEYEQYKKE

The target of assay [6] is T4, ATP-dependent RNA helicase DDX1 (Homo sapiens, UniProt Q92499).
T4 sequence (Q92499 whole entry): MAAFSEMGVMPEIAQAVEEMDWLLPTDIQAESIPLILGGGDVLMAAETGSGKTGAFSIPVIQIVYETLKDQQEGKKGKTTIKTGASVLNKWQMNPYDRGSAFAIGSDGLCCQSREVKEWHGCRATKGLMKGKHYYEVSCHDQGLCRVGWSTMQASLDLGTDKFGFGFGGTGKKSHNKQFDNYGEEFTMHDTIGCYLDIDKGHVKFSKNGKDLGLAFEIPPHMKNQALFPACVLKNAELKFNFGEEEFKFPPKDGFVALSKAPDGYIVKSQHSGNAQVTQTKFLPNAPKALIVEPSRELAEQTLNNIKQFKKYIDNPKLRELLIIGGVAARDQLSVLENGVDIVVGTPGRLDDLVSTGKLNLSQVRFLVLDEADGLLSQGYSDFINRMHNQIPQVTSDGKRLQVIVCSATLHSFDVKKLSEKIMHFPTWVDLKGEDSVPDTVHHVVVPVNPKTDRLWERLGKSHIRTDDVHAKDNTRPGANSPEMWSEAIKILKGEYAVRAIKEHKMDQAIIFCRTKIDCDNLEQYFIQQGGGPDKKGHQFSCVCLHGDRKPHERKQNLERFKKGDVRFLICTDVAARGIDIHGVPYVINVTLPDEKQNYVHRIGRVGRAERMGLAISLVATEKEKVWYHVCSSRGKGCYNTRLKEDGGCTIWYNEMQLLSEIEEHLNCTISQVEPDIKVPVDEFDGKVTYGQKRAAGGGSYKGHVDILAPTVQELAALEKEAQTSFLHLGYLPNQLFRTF
Note: in the data inactive means no Kd found up to 30 µM.

Sequence of Activated CDC42 kinase 1 (Q07912 whole entry, canonical isoform): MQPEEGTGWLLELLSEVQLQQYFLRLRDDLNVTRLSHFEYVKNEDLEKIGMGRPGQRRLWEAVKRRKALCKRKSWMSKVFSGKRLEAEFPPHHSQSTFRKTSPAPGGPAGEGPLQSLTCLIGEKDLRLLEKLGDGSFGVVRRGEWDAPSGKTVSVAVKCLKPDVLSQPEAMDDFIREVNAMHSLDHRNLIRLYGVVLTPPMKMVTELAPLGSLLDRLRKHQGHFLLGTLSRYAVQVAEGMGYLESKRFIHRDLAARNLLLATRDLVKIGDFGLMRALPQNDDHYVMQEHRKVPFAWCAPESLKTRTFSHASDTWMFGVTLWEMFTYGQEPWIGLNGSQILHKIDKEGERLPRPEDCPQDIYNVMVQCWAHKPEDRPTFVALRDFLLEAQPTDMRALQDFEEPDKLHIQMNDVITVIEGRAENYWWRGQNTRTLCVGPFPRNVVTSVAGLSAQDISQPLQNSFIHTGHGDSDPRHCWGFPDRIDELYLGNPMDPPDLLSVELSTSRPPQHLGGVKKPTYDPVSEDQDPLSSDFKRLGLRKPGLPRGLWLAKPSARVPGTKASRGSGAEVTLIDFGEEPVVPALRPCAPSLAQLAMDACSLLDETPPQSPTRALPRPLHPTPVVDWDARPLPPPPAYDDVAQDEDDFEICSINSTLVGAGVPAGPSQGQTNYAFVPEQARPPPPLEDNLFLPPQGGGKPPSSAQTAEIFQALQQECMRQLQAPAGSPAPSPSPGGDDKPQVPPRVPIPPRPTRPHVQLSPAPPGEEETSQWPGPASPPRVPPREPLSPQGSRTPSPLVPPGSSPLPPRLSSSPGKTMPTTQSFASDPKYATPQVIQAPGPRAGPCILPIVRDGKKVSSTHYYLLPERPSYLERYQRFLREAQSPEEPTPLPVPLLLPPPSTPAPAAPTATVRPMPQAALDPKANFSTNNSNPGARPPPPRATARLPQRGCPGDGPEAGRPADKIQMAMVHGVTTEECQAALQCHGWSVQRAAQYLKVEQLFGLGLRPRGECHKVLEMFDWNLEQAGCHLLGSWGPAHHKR
Sequence of Ephrin type-A receptor 2 (P29317 whole entry, canonical isoform): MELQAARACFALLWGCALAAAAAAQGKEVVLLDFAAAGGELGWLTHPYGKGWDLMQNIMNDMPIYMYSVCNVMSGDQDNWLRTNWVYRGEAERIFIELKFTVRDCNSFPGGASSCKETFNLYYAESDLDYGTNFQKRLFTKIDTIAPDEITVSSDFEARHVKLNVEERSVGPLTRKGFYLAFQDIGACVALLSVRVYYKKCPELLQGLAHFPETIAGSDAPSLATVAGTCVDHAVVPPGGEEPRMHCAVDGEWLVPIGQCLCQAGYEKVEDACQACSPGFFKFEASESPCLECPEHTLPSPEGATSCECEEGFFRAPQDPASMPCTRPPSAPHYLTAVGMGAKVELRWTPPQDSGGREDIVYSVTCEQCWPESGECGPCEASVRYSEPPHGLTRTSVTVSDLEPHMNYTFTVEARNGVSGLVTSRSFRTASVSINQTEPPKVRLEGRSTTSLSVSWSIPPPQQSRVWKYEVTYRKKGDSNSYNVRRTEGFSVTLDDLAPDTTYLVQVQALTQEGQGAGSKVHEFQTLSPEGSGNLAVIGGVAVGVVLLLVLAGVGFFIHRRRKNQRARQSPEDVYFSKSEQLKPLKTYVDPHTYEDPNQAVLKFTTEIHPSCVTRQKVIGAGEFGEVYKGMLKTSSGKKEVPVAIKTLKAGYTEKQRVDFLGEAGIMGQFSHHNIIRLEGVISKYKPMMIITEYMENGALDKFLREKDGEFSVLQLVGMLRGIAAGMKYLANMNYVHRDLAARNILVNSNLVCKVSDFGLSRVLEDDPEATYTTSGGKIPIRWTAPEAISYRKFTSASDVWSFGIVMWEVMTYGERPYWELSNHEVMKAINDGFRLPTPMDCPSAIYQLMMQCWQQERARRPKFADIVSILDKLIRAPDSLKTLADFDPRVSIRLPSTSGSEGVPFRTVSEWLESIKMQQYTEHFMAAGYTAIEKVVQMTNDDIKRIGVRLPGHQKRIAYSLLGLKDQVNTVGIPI
Sequence of Proto-oncogene tyrosine-protein kinase Src (P12931 2-536 limits assumed): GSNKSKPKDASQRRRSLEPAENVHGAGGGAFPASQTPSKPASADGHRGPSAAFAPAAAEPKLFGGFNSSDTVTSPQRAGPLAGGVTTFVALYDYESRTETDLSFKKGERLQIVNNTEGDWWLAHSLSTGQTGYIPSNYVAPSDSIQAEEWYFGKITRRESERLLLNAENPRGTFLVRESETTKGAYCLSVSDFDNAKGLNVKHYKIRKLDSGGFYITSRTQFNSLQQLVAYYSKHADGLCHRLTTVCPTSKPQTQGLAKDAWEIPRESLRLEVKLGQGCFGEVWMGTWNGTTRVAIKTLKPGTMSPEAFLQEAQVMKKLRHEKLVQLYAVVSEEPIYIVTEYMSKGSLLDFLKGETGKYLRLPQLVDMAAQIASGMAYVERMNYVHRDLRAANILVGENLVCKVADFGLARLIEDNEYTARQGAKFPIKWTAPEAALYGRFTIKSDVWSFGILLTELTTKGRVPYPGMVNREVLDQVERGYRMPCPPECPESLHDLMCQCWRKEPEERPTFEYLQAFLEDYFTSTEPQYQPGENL
Sequence of Casein kinase I isoform epsilon (P49674 whole entry, canonical isoform): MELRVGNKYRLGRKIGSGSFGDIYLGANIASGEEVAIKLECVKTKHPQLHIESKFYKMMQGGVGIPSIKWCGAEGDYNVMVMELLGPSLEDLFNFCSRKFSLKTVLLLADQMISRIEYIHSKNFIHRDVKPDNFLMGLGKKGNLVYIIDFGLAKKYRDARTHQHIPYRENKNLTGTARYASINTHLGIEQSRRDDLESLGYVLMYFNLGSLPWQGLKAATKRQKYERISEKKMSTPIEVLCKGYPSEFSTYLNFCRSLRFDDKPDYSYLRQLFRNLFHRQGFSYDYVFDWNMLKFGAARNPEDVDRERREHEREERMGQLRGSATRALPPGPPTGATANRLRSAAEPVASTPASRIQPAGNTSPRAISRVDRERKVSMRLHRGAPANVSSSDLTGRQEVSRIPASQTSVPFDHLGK
Sequence of Obg-like ATPase 1 (Q9NTK5 whole entry, looked up, canonical isoform): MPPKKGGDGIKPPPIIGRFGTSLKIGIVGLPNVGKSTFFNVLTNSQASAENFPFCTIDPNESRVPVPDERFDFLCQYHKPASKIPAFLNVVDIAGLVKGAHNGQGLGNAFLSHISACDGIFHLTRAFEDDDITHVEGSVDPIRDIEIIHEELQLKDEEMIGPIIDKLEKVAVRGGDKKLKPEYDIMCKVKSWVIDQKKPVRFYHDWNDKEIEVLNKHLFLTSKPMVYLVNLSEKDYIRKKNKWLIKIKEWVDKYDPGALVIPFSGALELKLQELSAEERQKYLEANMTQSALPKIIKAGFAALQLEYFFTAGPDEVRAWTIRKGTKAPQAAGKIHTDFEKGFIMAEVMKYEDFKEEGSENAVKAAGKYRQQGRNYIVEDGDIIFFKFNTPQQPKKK

On to `CNC(=O)c1cccc(-c2ccc3c(N4CCOC[C@@H]4C)nc(N4CCOC[C@@H]4C)nc3n2)c1` [VISTUSERTIB], for which the Kd (at Ephrin type-A receptor 2; in assay [1]; in assay [2]; at Obg-like ATPase 1; in [3]; in assay [4]) was > 30 µM (inactive) throughout. For the same compound, the Kd (at Actin-related protein 2; in [5]; on Activated CDC42 kinase 1; in assay [6]) was > 30 µM (inactive) throughout.

On to `COc1cc2nccc(Oc3ccc(NC(=O)C4(C(=O)Nc5ccc(F)cc5)CC4)cc3)c2cc1OC` [CABOZANTINIB], for which the Kd (in general, a measure of binding affinity in units of concentration) is 0.746 µM (active) at Ephrin type-A receptor 2; > 30 µM (inactive) in assay [1]; > 30 µM (inactive) in assay [2]; > 30 µM (inactive) at Obg-like ATPase 1; > 30 µM (inactive) in assay [3]; > 30 µM (inactive) in [4]. Moreover, the Kd (at Actin-related protein 2; in assay [5]; on Activated CDC42 kinase 1; in assay [6]) was > 30 µM (inactive) each time.

Regarding `Cc1cc(Nc2nc(N[C@@H](C)c3ncc(F)cn3)ncc2Cl)n[nH]1` [AZD-1480], the Kd (on Ephrin type-A receptor 2; in [1]; in assay [2]; at Obg-like ATPase 1; in [3]; in [4]) was > 30 µM (inactive) throughout. In addition, the Kd is > 30 µM (inactive) on Actin-related protein 2, > 30 µM (inactive) in assay [5], 0.515 µM (active) on Activated CDC42 kinase 1 and > 30 µM (inactive) in assay [6].

For `COc1cccc2cc(-c3nc([C@H]4CC[C@H](C(=O)O)CC4)n4ncnc(N)c34)[nH]c12` [OSI-027], the Kd (at Ephrin type-A receptor 2; in assay [1]; in assay [2]; at Obg-like ATPase 1; in assay [3]; in [4]) was > 30 µM (inactive) each time. Besides, the Kd (at Actin-related protein 2; in [5]; at Activated CDC42 kinase 1; in [6]) was > 30 µM (inactive) in each case.

Regarding `Cc1c(Cn2c(C)nc3c(C(=O)O)cc(N4CCOCC4)cc32)cccc1C(F)(F)F` [GSK-2636771], the Kd (on Ephrin type-A receptor 2; in assay [1]; in [2]; at Obg-like ATPase 1; in [3]; in assay [4]) was > 30 µM (inactive) each time. The Kd (on Actin-related protein 2; in assay [5]; on Activated CDC42 kinase 1; in [6]) was > 30 µM (inactive) in each case.

Take `Cc1cc(C(=O)Nc2cc(Oc3ccc4nc(NC(=O)C5CC5)cn4n3)ccc2C)n(C)n1` [TAK-593]: the Kd (on Ephrin type-A receptor 2; in assay [1]; in [2]; on Obg-like ATPase 1; in assay [3]; in [4]) was > 30 µM (inactive) in each case. The Kd (at Actin-related protein 2; in assay [5]; at Activated CDC42 kinase 1; in assay [6]) was > 30 µM (inactive) in each case.

On to `Cn1cc(-c2[nH]c3cc(NC(=O)[C@H](N)C4CCCCC4)cc4c3c2C=NNC4=O)cn1`, for which the Kd at Ephrin type-A receptor 2 is > 30 µM (inactive); in assay [1], > 30 µM (inactive); in [2], > 30 µM (inactive); at Obg-like ATPase 1 it was > 30 µM (inactive); in [3], > 30 µM (inactive); in [4], 1.4 µM (active). The Kd (at Actin-related protein 2; in [5]; at Activated CDC42 kinase 1; in assay [6]) was > 30 µM (inactive) in each case.

Consider `C[C@@H]1COC(Nc2ccc3ncnc(Nc4ccc(OCc5nccs5)c(Cl)c4)c3c2)=N1` [VARLITINIB], for which the Kd (on Ephrin type-A receptor 2; in [1]; in assay [2]; on Obg-like ATPase 1; in assay [3]; in assay [4]) was > 30 µM (inactive) each time. Moreover, the Kd (at Actin-related protein 2; in assay [5]; on Activated CDC42 kinase 1; in [6]) was > 30 µM (inactive) throughout.

As for `CCc1cc2c(cc1N1CCC(N3CCOCC3)CC1)C(C)(C)c1[nH]c3cc(C#N)ccc3c1C2=O` [ALECTINIB], the Kd (on Ephrin type-A receptor 2; in [1]; in assay [2]; on Obg-like ATPase 1; in assay [3]; in assay [4]) was > 30 µM (inactive) throughout. The Kd (on Actin-related protein 2; in assay [5]; on Activated CDC42 kinase 1; in assay [6]) was > 30 µM (inactive) throughout.

In the case of `Cn1c(=O)c(F)c(Nc2ccc(I)cc2F)c2c(=O)n(C[C@@H](O)CO)cnc21` [TAK-733], the Kd (on Ephrin type-A receptor 2; in assay [1]; in assay [2]; at Obg-like ATPase 1; in assay [3]; in assay [4]) was > 30 µM (inactive) throughout. Moreover, the Kd (on Actin-related protein 2; in [5]; on Activated CDC42 kinase 1; in assay [6]) was > 30 µM (inactive) in each case.

Regarding `COc1ccc2c(OCc3nnc4ccc(-c5ccccc5)nn34)ccnc2c1` [AMG-208], the Kd (at Ephrin type-A receptor 2; in assay [1]; in [2]; at Obg-like ATPase 1; in [3]; in assay [4]) was > 30 µM (inactive) each time. For the same compound, the Kd (at Actin-related protein 2; in assay [5]; at Activated CDC42 kinase 1; in assay [6]) was > 30 µM (inactive) in each case.
